Like-named read-outs stand apart in the source and are kept apart here.
Key:
HCT116 MTAP null cells = test: HCT116 MTAP null cell proliferation / viability (CellTiter-Glo, 6 days); format: cell-based; settings: for IC50: HCT116 MTAP null cells, 6 days, CellTiter-Glo, read-out: HCT-116 MTAP null IC50; for potency of enantiomer relative to the other enantiomer, measured by IC50 in HCT116 MTAP null cell viability assay: comparison of the two SFC-separated enantiomers
Outline: (§1)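 IC50 values derive from sigmoidal dose-response fits, some with Hill slope fixed at −1 and top constrained to 100%, others from 4-parameter logistic models. They reflect CellTiter-Glo viability after 6 days of compound exposure at up to 10 or 50 μM.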

HCT116 WT cells = test: HCT116 WT cell proliferation / viability (CellTiter-Glo, 6 days); format: cell-based; settings: HCT116 WT cells, 6 days, CellTiter-Glo, read-out: HCT-116 WT IC50
Outline: as §1

SMILES	IC50 (HCT116 MTAP null cells; HCT116-MTAP null, 144 h)	IC50 (HCT116 WT cells; Homo sapiens, HCT-116, 144 h)	potency of enantiomer relative to the other enantiomer, measured by IC50 in HCT116 MTAP null cell viability assay (HCT116 MTAP null cells)	IC50 (HCT116 MTAP null cells)	IC50 (HCT116 WT cells)
CC1OCc2c1c(N)nc1ccc(C(=O)N(Cc3ccc(C(F)(F)F)cn3)[C@H]3C[C@@H]3C(F)(F)F)cc21 (mixture of isomers) [Example 910, 4-amino-3-methyl-N-((1R,2R)-2-(trifluoromethyl)cyclopropyl)-N-((5-(trifluoromethyl)-2-pyridinyl)methyl)-1,3-dihydrofuro[3,4-c]quinoline-8-carboxamide and 4-amino-3-methyl-N-((1S,2S)-2-(trifluoromethyl)cyclopropyl)-N-((5-(trifluoromethyl)-2-pyridinyl)methyl)-1,3-dihydrofuro[3,4-c]quinoline-8-carboxamide]	22 nM	3 µM			
C[C@H](CF)N(Cc1ccc(C#N)cn1)C(=O)c1ccc2nc(N)c3c(c2c1)COC3 (single isomer, unassigned) [Example 577]	3260 nM	> 10 µM	more potent		
C[C@@H](CF)N(Cc1ccc(C#N)cn1)C(=O)c1ccc2nc(N)c3c(c2c1)COC3 (single isomer, unassigned) [Example 578]	338 nM	4.93 µM	less potent		
CC(C)CN(Cc1ccc(C(F)(F)F)cn1)C(=O)c1ccc2nc(N)c3c(c2c1)CO[C@H]3CO (single isomer, unassigned) [Example 579]	348 nM	5.62 µM			
CC(C)CN(Cc1ccc(C(F)(F)F)cn1)C(=O)c1ccc2nc(N)c3c(c2c1)CO[C@@H]3CO (single isomer, unassigned) [Example 580]	321 nM	10.8 µM			
N#CC[C@H](C1CC1)N(Cc1ccc(C#N)cn1)C(=O)c1ccc2nc(N)c3c(c2c1)COC3 (single isomer, unassigned) [Example 581]	809 nM	10.2 µM			
N#CC[C@@H](C1CC1)N(Cc1ccc(C#N)cn1)C(=O)c1ccc2nc(N)c3c(c2c1)COC3 (single isomer, unassigned) [Example 582]	36 nM	0.558 µM			
CO[C@@H]1CCOC[C@H]1N(Cc1ccc(C#N)c(C)n1)C(=O)c1ccc2nc(N)c3c(c2c1)COC3 (single isomer, unassigned) [Example 583]				173 nM	4.82 µM
CO[C@@H]1COCC[C@H]1N(Cc1ccc(C(F)(F)F)cn1)C(=O)c1ccc2nc(N)c3c(c2c1)COC3 (single isomer, unassigned) [Example 584]	14 nM	0.164 µM			
CO[C@@H]1CCOC[C@H]1N(Cc1ccc(C(F)(F)F)cn1)C(=O)c1ccc2nc(N)c3c(c2c1)COC3 (single isomer, unassigned) [Example 586]	12 nM	0.15 µM			
CO[C@H]1CCOC[C@@H]1N(Cc1ccc(C(F)(F)F)cn1)C(=O)c1ccc2nc(N)c3c(c2c1)COC3 (single isomer, unassigned) [Example 587]	76 nM	1.71 µM			
CO[C@@H]1CCOC[C@H]1N(Cc1ccc(C#N)c(C)n1)C(=O)c1ccc2nc(N)c3c(c2c1)COC3 (single isomer, unassigned) [Example 588]				79 nM	1.95 µM
C[C@H](c1ccc(C(F)(F)F)cn1)N(C(=O)c1cc2c3c(c(N)nc2cn1)[C@@H](C)OC3)C1CC1 (single isomer, unassigned) [Example 589]	29 nM	0.815 µM			
C[C@@H]1OCc2c1c(N)nc1cnc(C(=O)N(C3CC3)[C@H](C)c3ccc(C(F)(F)F)cn3)cc21 (single isomer, unassigned) [Example 590]	2230 nM	> 50 µM			
Cc1cc2nc(N)c3cnn(C)c3c2cc1C(=O)N(C)[C@@H](C)c1ccc(F)cn1 (single isomer, unassigned) [Example 591]	563 nM	32.1 µM			
Cc1cc2nc(N)c3cnn(C)c3c2cc1C(=O)N(C)[C@H](C)c1ccc(F)cn1 (single isomer, unassigned) [Example 592]	25 nM	2.41 µM			
C[C@@H](c1ccc(F)cn1)N(C)C(=O)c1cc2c(cc1Cl)nc(N)c1cnn(C)c12 (single isomer, unassigned) [Example 594]	638 nM	29.1 µM			
C[C@H](c1ncc(C(F)(F)F)cc1F)N(C)C(=O)c1cc2c3c(c(N)nc2cc1F)COC3 (single isomer, unassigned) [Example 595]	10 nM	0.676 µM			
CCN(Cc1ccc(C(F)(F)F)cn1)C(=O)c1ccc2nc(N)c3c(c2c1)CO[C@H]3CF (single isomer, unassigned) [Example 596]	888 nM	37.3 µM			

SMILES	IC50 (HCT116 MTAP null cells; HCT116-MTAP null, 144 h)	IC50 (HCT116 WT cells; Homo sapiens, HCT-116, 144 h)	potency of enantiomer relative to the other enantiomer, measured by IC50 in HCT116 MTAP null cell viability assay (HCT116 MTAP null cells)	IC50 (HCT116 MTAP null cells)	IC50 (HCT116 WT cells)
C[C@H]1OCc2c1c(N)nc1cnc(C(=O)N(C)Cc3ccc(Br)cn3)cc21 (single isomer, unassigned) [Example 597]	200 nM	15.2 µM			
C[C@H](c1ccc(C(F)(F)F)cc1)N(C)C(=O)c1cc2c(cn1)nc(N)c1cnn(C)c12 (single isomer, unassigned) [Example 598]	8 nM	0.415 µM			
C[C@@H](c1ccc(C(F)(F)F)cc1)N(C)C(=O)c1cc2c(cn1)nc(N)c1cnn(C)c12 (single isomer, unassigned) [Example 599]	536 nM	27.2 µM			
C[C@H](c1ccc(C(F)(F)F)cn1)N(C)C(=O)c1ccc2nc(N)c3cnn(C)c3c2c1 (single isomer, unassigned) [Example 600]	18 nM	0.663 µM			
C[C@@H](c1ccc(C(F)(F)F)cn1)N(C)C(=O)c1ccc2nc(N)c3cnn(C)c3c2c1 (single isomer, unassigned) [Example 601]	997 nM	21.2 µM			
C[C@H](c1ccc(C(F)(F)F)cn1)N(C)C(=O)c1cc2c(cc1F)nc(N)c1cnn(C)c12 (single isomer, unassigned) [Example 602]	6 nM	0.209 µM			
C[C@@H](c1ccc(C(F)(F)F)cn1)N(C)C(=O)c1cc2c(cc1F)nc(N)c1cnn(C)c12 (single isomer, unassigned) [Example 603]	276 nM	11.8 µM			
C[C@H](c1ccc(F)cn1)N(C)C(=O)c1ccc2nc(N)c3cnn(C)c3c2c1 (single isomer, unassigned) [Example 604]	238 nM	24.6 µM			
C[C@H](c1ccc(C(F)(F)F)nn1)N(C)C(=O)c1cc2c(cc1F)nc(N)c1cnn(C)c12 (single isomer, unassigned) [Example 605]	14 nM	0.793 µM			
COc1ccc(CN(C(=O)c2ccc3nc(N)c4c(c3c2)CCC4)[C@H](C)c2ncccn2)nn1 (single isomer, unassigned) [Example 646]	19 nM	0.263 µM	more potent		
COc1ccc(CN(C(=O)c2ccc3nc(N)c4c(c3c2)CCC4)[C@@H](C)c2ncccn2)nn1 (single isomer, unassigned) [Example 647]	673 nM	4.2 µM	less potent		
C[C@@H](c1ncccn1)N(Cc1ccc(C(F)(F)F)nn1)C(=O)c1ccc2nc(N)c3c(c2c1)CCC3 (single isomer, unassigned) [Example 648]	279 nM	2.5 µM			
C[C@H](c1ncccn1)N(Cc1ccc(C(F)(F)F)nn1)C(=O)c1ccc2nc(N)c3c(c2c1)CCC3 (single isomer, unassigned) [Example 649]	14 nM	0.181 µM			
COC[C@H](C1CC1)N(Cc1ccc(Br)nn1)C(=O)c1ccc2nc(N)c3sccc3c2c1 (single isomer, unassigned) [Example 650]	53 nM	0.811 µM			
COC[C@H](C1CC1)N(Cc1ccc(Br)nn1)C(=O)c1cnc2nc(N)c3c(c2c1)COC3 (single isomer, unassigned) [Example 651]	234 nM	3.52 µM			
C[C@H](CF)N(Cc1ccc(C#N)cn1)C(=O)c1cc2c3c(c(N)nc2cn1)COC3 (single isomer, unassigned) [Example 820]	7070 nM	> 10 µM			
CCN(C(=O)c1ccc2nc(N)c3c(c2c1)COC3)[C@@H](C)c1ccc(C(F)(F)F)cn1 (single isomer, unassigned) [Example 821]	4190 nM	> 50 µM			
CCN(C(=O)c1ccc2nc(N)c3c(c2c1)COC3)[C@H](C)c1ccc(C(F)(F)F)cn1 (single isomer, unassigned) [Example 822]	323 nM	12 µM			
